The values below come from PubChem BioAssay (NCI).

Experiment in all cases: inhibition of tumour cell growth, NCI panel, 48 h
The subject of experiment [1] is BT-549 breast.
Experiment [2] has as its system CCRF-CEM leukemia.
The test system of experiment [3] is HCT-116 colon.
The subject of experiment [4] is HT29 colon.
Experiment [5] deals with MALME-3M melanoma.
Experiment [6] deals with NCI-H23 lung.
Experiment [7] has as its system NCI/ADR-RES ovarian.
The test system of experiment [8] is OVCAR-5 ovarian.
For experiment [9], the system named is SN12C renal.
The test system of experiment [10] is SNB-19 CNS.

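Each compound was tested at five concentrations against cells in 96-well plates for 48 hours. At the GI50, growth is halved. TGI: total growth inhibition.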

In the case of `COc1cc(OCc2cccc(-c3ccc(C(O)c4nccs4)cc3)c2C)cc(OC)c1C=O` (centres undefined), the GI50 was 1.77 µM in experiment [1]; 2.33 µM in [2]; 1.44 µM in [3]; 2.83 µM in experiment [4]; 2.7 µM in [5]; 1.92 µM in [6]. Moreover, the GI50 in experiment [7] was 2.84 µM; in experiment [8], 0.929 µM; in [9], 1.98 µM; in experiment [10], 3.16 µM. For the same compound, the TGI turned out to be 6.78 µM in experiment [1]; 19.9 µM in experiment [2]; 4.51 µM in experiment [3]; 13.6 µM in [4]; 7.9 µM in experiment [5]; 10.2 µM in experiment [6]. The TGI in experiment [7] worked out at 14.7 µM; in experiment [8], 5.54 µM; in experiment [9], 7.07 µM; in experiment [10] it was 13.4 µM.
For the compound `COC(=O)COc1ccccc1/C=C1\N=C(c2ccccc2)N(c2cc(C(F)(F)F)ccc2Cl)C1=O`, the GI50 in experiment [1] is 28.4 µM; in experiment [2], 27.6 µM; in experiment [3], 38.2 µM; in experiment [4] it was 73.2 µM; in experiment [5], 27.5 µM; in experiment [6] it was over 100 µM. Also, the GI50 in experiment [7] was 45.8 µM; in experiment [8], over 100 µM; in experiment [9], 60.5 µM; in experiment [10], 43.5 µM. For the same compound, the TGI in experiment [1] was 86.2 µM; in experiment [2], 74.4 µM; in [3], over 100 µM; in [4] it was over 100 µM; in experiment [5] it was 92.5 µM; in [6] it was over 100 µM. The TGI in experiment [7], in [8], in experiment [9] and in experiment [10] was over 100 µM throughout.
On to `CCN(CC)CCC(CNc1ccnc2cc(Cl)ccc12)c1ccc(Cl)cc1` (centres undefined), for which the GI50 in experiment [1] is 1.73 µM; in experiment [2], 1.27 µM; in experiment [3], 1.01 µM; in experiment [4] it was 0.282 µM; in [5] it was 1.4 µM; in [6], 1.87 µM. Moreover, the GI50 was 2.06 µM in [7], 3.01 µM in experiment [8], 1.84 µM in experiment [9] and 1.98 µM in experiment [10]. Moreover, the TGI in [1] is 3.4 µM; in [2], 6.29 µM; in [3], 2.32 µM; in experiment [4], 1.49 µM; in [5], 3.16 µM; in [6], 7.1 µM. Moreover, the TGI in experiment [7] turned out to be 8.65 µM; in experiment [8] it was 11.2 µM; in experiment [9], 10.4 µM; in experiment [10] it was 5.78 µM.
In the case of `COc1cccc(CC(C)=C(c2ccc(OCCN(C)C)cc2)c2ccc(OCCN(C)C)cc2)c1`, the GI50 in experiment [1] is 4.29 µM; in [2], 0.693 µM; in experiment [3], 0.644 µM; in experiment [4], 0.706 µM; in experiment [5], 0.564 µM; in experiment [6], 4.42 µM. Further, the GI50 was 3.76 µM in experiment [7], 3.24 µM in [8], 4.19 µM in experiment [9] and 4.38 µM in experiment [10]. Also, the TGI turned out to be 8.88 µM in experiment [1]; 2.23 µM in experiment [2]; 1.5 µM in experiment [3]; 1.91 µM in experiment [4]; 1.05 µM in [5]; 9.24 µM in [6]. The TGI in [7] was determined as 8.32 µM; in experiment [8] it was 7.35 µM; in experiment [9], 8.69 µM; in experiment [10] it was 8.99 µM.
With `O=C(Nc1ccc(Nc2ccncc2)cc1)c1ccc([N+](=O)[O-])cc1`, the GI50 in experiment [1] was 11.6 µM; in experiment [2] it was 3.37 µM; in experiment [3], 2.93 µM; in experiment [4], 3.61 µM; in [5] it was 4.89 µM; in [6], 10.8 µM. Also, the GI50 was 14.2 µM in experiment [7], 9.82 µM in experiment [8], 2.75 µM in [9] and 4.47 µM in experiment [10]. Moreover, the TGI is 28.2 µM in [1]; 17 µM in [3]; 16.5 µM in [4]; 17.3 µM in [5]; over 62.6 µM in experiment [6]; over 62.5 µM in experiment [7]. The TGI in experiment [8] was over 44.7 µM; in experiment [9] it was 8.79 µM; in experiment [10], 20.7 µM.
For the compound `O=C(/C=C/c1ccccc1)CCC1C(=O)c2ccccc2C1=O`, the TGI in [1], in [2], in experiment [3], in experiment [4], in [5] and in [6] was over 100 µM throughout. Further, the TGI in [7], in experiment [8], in experiment [9] and in [10] was over 100 µM each time.
